Test results: patent publication US20220370381A1 (priority 2016, published 2022)

Experiments:
Swiss OF-1 mice = experiment: Step-through passive avoidance, dizocilpine-induced deficit; assay type: in vivo, mouse
Na channel = test system: T1, Na channel; experiment: Competitive radioligand binding assay, Na channel; design: species or system Rat; conditions: test article 1×10^−6 and 1×10^−5 mol/L; rat brain
T1 construct: other: test article 1×10^−6 and 1×10^−5 mol/L; rat brain

[1] = test system: wild-type zebrafish (ZF) larvae; experiment: PTZ-induced seizures in wild-type zebrafish larvae, behavioral (locomotor) assay; assay type: in vivo; conditions: wt zebrafish; p>0.05 vs. VHC+PTZ
Sigma 1 = Sigma 1 (Cavia porcellus, UniProt Q60492); experiment: Sigma-1 receptor tissue bioassay, guinea pig vas deferens, agonist activity (twitch contraction); design: Segments of guinea pig vas deferens were suspended in 20-ml organ baths; from tissue; host or cells: guinea pig vas deferens; conditions: field-stimulated guinea pig vas deferens, compound alone
[2] = test system: homozygous scn1Lab−/− mutant zebrafish; experiment: Forebrain local field potential (LFP) recordings in homozygous scn1Lab−/− mutant zebrafish larvae; assay type: in vivo; conditions: 25, 50 or 100 μM for 24 h; p<0.05 vs. VHC
Description: ZF larvae were treated on 6 dpf with vehicle (VHC, 0.1% dimethyl sulfoxide, DMSO, or FA (25, 50 or 100 μM) for 24 h. Thereafter, the locomotor activity (behavior) was monitored by an automated tracking device. Subsequently, forebrain local field potentials and forebrain activity (LFPs, brain activity) were measured to confirm anticonvulsant effects of FA treatment, if indicated by the behavioral assays.

DBA/1 mice [3] = experiment: Seizure-induced respiratory arrest (S-IRA) in DBA/1 mice; assay type: in vivo, mouse
hNav1.5 = hNav1.5 (Homo sapiens, UniProt Q14524); experiment: Ion channel profiling, IonFlux HT automated patch clamp, hNav1.5
CRL NMRI mice = experiment: Mouse 6-Hz model of refractory seizures; assay type: in vivo; conditions: 5.0 or 20.0 mg/kg i.p.
Description: The 6 Hz mouse model is a model system used to assess the efficacy of putative anti-seizure medications for refractory epilepsies generally, without regard to type.
The efficacy of FA in the mouse 6-Hz model was assessed by behavioral characterization after intraperitoneal injection of CRL NMRI mice (30-35 g) with VHC (50/50 DMSO/PEG200) or FA (5.0 or 20.0 mg/kg). Animals were placed in one of three treatment groups: vehicle (n=10), FA 5 mg/kg (n=6) and FA 20 mg/kg (n=6). Seizures were transcorneal-induced 1 h after injection (6-Hz, 0.2 ms pulse width, 44 mA).

[4] = target: T2, human β-2 adrenergic receptor (Homo sapiens, UniProt P07550); experiment: β-2 adrenergic receptor antagonist assay, agonist-induced cAMP production (HTRF); assay type: cell-based; design: expressed in transfected cells; host or cells: HEK-293; conditions: inhibition of isoproterenol-induced cAMP production
Description: Transfected HEK-293 cells expressing human β-1 adrenergic receptor, human β-2 adrenergic receptor, and human β3 adrenergic receptor, respectively, were prepared using cloned human cDNA. See H FRIELLE, T., COLLINS, S., DANIEL, K. W., CARON, M. G., LEFKOWITZ, R. J., KOBILKA, B. K. (1987), Cloning of the cDNA for the human beta1-adrenergic receptor, Proc. Natl. Acad. Sci. U.S.A., 84,7920, and BAKER, J. G. (2005) The selectivity of Beta-adrenoreceptor antagonists at the human Beta1, Beta2 and Beta3 adrenoreceptor, Brit.
Transfected cells were suspended in HBSS buffer (Invitrogen) complemented with 20 mM HEPES (pH 7.4) and 500 μM IBMX. […] The cells were then distributed in 96 well microplates (see FIG. 15 for plating densities).
After plating, the cells were induced by adding reference agonist. See FIG. 15 for reference agonists and concentrations used for each assay. […] The cells were then incubated 30 minutes at room temperature.
Subsequently, the cells were lysed and a fluorescence acceptor (D2-labeled cAMP) and a fluorescence donor (anti-cAMP antibody labeled with europium cryptate) were added to the wells.
Standard reference antagonists were tested in each experiment at several concentrations to generate a concentration-response curve from which its IC50 value is calculated.
EC50 values (concentration producing a half-maximal response) and IC50 values (concentration causing a half-maximal inhibition of the control agonist response) were determined by non-linear regression analysis of the concentration-response curves generated with mean replicate values using Hill equation curve fitting: […]
For the antagonists, the apparent dissociation constants (KB) were calculated using the modified Cheng Prusoff equation:
KB=IC50/[1+(A/EC50A)], where

[5] = test system: T3, β-Adrenergic (Non-selective); experiment: Competitive radioligand binding assay, β-adrenergic (non-selective); design: species or system Rat; conditions: test article 1×10^−6 and 1×10^−5 mol/L; rat brain
T3 construct: β-1 adrenergic; other: test article 1×10^−6 and 1×10^−5 mol/L; rat brain

[6] = target: T2, human β-2 adrenergic receptor; experiment: Competitive radioligand binding assay, β2-adrenergic; conditions: test article 1×10^−6 and 1×10^−5 mol/L; human recombinant
serotonin 5-HT1A = target: T4, serotonin 5-HT1A (Rattus norvegicus, UniProt P19327); experiment: Competitive radioligand binding assay, serotonin 5-HT1A
T4 construct: serotonin 5-HT1A (rat cerebral cortex); from tissue; host or cells: rat cerebral cortex
T4 sequence (P19327 1-422): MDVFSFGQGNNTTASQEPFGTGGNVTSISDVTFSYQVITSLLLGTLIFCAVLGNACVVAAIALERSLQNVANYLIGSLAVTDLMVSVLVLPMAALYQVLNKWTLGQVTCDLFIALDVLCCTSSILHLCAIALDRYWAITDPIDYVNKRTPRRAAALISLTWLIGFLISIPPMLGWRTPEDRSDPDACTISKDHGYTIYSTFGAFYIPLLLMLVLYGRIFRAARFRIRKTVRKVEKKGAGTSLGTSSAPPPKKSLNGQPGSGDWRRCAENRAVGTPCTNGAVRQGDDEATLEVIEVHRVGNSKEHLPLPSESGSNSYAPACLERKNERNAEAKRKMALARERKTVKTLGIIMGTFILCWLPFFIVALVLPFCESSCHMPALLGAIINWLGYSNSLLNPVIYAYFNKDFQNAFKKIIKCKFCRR

DBA/1 mice [7] = experiment: Audiogenic seizures (AGSz) in DBA/1 mice; assay type: in vivo, mouse

T2 sequence (P07550 whole entry): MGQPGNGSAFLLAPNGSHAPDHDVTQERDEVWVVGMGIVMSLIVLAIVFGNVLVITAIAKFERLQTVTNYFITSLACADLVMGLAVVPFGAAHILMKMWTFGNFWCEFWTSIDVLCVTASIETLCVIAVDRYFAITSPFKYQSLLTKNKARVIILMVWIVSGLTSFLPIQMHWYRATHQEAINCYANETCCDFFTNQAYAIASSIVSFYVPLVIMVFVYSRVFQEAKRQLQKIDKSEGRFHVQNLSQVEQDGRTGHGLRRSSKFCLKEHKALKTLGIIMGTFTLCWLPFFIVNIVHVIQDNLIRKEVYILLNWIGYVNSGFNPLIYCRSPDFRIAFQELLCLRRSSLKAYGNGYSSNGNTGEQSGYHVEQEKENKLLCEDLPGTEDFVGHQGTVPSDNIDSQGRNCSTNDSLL
hNav1.5, sequence (Q14524 whole entry): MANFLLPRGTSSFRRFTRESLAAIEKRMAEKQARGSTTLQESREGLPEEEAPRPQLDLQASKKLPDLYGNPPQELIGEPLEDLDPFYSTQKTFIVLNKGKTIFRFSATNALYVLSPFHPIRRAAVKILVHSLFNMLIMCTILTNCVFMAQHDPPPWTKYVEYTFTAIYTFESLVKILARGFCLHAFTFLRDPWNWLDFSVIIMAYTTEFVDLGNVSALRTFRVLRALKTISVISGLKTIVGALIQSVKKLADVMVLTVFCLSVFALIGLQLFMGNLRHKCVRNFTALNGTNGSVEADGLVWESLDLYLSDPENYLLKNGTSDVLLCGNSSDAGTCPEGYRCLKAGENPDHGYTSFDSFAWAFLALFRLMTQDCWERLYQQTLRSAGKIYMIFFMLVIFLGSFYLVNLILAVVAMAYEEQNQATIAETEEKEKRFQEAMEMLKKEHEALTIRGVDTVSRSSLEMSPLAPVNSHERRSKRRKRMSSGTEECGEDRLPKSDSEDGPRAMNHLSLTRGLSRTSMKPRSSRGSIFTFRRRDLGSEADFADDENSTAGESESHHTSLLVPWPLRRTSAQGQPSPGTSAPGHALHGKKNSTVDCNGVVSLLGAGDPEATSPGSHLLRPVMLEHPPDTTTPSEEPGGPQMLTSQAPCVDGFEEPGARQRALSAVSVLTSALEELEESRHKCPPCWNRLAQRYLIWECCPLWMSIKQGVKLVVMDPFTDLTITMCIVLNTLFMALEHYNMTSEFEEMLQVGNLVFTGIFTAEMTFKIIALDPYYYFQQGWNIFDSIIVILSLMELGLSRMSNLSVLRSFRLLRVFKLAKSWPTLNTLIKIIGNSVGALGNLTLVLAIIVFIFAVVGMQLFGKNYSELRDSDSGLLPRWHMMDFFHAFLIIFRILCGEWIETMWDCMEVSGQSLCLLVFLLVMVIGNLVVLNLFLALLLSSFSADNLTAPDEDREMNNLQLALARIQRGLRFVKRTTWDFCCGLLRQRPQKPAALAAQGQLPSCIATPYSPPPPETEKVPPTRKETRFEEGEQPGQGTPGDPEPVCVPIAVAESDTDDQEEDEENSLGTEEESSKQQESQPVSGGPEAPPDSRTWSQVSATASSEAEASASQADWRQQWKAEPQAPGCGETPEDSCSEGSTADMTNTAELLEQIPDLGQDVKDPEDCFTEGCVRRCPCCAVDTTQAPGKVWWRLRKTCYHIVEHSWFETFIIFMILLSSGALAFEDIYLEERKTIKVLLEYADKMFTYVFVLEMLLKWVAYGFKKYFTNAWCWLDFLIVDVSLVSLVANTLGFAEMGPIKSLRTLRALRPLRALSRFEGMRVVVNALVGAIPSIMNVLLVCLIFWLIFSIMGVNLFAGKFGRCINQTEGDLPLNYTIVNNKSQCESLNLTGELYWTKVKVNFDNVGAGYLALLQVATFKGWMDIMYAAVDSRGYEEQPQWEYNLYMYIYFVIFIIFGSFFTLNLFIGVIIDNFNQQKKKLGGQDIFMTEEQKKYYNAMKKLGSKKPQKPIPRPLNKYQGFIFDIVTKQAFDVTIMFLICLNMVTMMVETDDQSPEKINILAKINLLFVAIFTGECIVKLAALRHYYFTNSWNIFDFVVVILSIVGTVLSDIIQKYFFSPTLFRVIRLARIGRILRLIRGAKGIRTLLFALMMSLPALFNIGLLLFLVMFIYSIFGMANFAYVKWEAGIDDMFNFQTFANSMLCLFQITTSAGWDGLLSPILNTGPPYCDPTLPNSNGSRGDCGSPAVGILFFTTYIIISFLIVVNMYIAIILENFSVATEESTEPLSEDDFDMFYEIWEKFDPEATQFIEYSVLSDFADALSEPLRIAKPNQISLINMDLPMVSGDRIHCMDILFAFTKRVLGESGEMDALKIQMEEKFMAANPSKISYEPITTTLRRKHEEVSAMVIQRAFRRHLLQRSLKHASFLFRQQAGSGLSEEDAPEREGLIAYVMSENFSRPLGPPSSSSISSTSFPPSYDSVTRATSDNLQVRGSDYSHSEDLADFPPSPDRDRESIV
Sigma 1, sequence (Q60492 whole entry): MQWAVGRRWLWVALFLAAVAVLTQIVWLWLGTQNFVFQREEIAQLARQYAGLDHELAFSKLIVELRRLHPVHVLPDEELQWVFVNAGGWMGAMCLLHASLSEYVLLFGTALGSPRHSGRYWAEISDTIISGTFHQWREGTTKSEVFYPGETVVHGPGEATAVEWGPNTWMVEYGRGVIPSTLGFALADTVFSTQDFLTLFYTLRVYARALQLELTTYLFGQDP

CCNC(C)Cc1cccc(C(F)(F)F)c1 (racemic) [fenfluramine, (RS)—N-ethyl-1-[3-(trifluoromethyl)phenyl]propan-2-amine]
dose attenuating dizocilpine-induced deficit in passive avoidance response (minimal active dose) (Swiss OF-1 mice; IP, 0.1 mg/kg not active): 0.3 mg/kg
dizocilpine-induced deficit of passive avoidance learning (Swiss OF-1 mice; dizocilpine […], most active doses 0.3 and 1 mg/kg IP): significantly attenuated
inhibition of receptor binding (tracer) (Na channel): significantly inhibit
antiseizure effect on PTZ-induced seizures [1]: no observable antiseizure effects
effect on twitch contraction amplitude (Sigma 1): did not significantly affect
epileptiform brain activity (LFP recordings) [2]: anti-epileptiform activity was consistently confirmed
effect on seizures and S-IRA (DBA/1 mice [3]; 5 mg/kg): ineffective
S-IRA (DBA/1 mice [3]; 15 mg/kg, at 16h, p<0.001): selective S-IRA blocking effect
time at which S-IRA susceptibility returned (DBA/1 mice [3]; 40 mg/kg): 72 h
S-IRA incidence and seizure severity (DBA/1 mice [3]; 10-20 mg/kg, at 8h): reduction in S-IRA incidence and seizure severity
S-IRA susceptibility and seizure severity (DBA/1 mice [3]; 10 and 15 mg/kg, at 12h): significantly (p<0.01) reduced S-IRA susceptibility and seizure severity
ED50 (DBA/1 mice [3]; Mus musculus, ip, 0.5 h, read-out: ED50, blockade of seizure-induced respiratory arrest (S-IRA)): 18.6 mg/kg
time by which susceptibility to seizure and S-IRA returned (DBA/1 mice [3]; time course study, 5-20 mg/kg): ≤ 48 h
IC50 (hNav1.5): > 30000 nM
period of post-seizure aggression (CRL NMRI mice): did not
seizures in the mouse 6-Hz model (CRL NMRI mice; 1 h before 6-Hz 44 mA stimulation, p<0.05 vs. VHC): significantly reduced seizures
antagonist activity at the beta-2 adrenergic receptor [4]: some antagonist activity
inhibition of receptor binding (tracer) [5]: significantly inhibit
inhibition of receptor binding (tracer) [6]: significantly inhibit
IC50 (serotonin 5-HT1A): 573 nM
Ki (serotonin 5-HT1A): 327 nM
inhibition of receptor binding (tracer) (serotonin 5-HT1A; test article 1×10^−6 and 1×10^−5 mol/L, rat cerebral cortex): significantly inhibit
seizure severity (DBA/1 mice [7]; 15 mg/kg, at 16h, p<0.05): significantly reduced seizure severity
time at which seizure susceptibility returned (DBA/1 mice [7]; 40 mg/kg): 48 h
seizures (DBA/1 mice [7]; 40 mg/kg, at 30 min, p<0.001): completely blocked seizures
ED50 (DBA/1 mice [7]; Mus musculus, ip, 0.5 h, i.p., at 30 min, read-out: ED50, blockade of susceptibility to audiogenic seizures (AGSz)): 31 mg/kg
ED50, blockade of susceptibility to audiogenic seizures (AGSz) (DBA/1 mice [7]; i.p., at 30 min, listed as FFA): 21.4 mg/kg
